# Measurements from patent US20240109924A1, “IP4-4,6 SUBSTITUTED DERIVATIVE COMPOUNDS” (SANIFIT THERAPEUTICS, S.A., priority 2021, published 2024).
# Counter-ions that a name gives are not always drawn.
# Experiment: In vitro inhibition of calcium phosphate crystallization in human plasma (spectrophotometric assay)
# Format: biochemical
# Conditions: 0-100 μM, 1.5 mM phosphate, 12.5 mM calcium, pH 7.4, absorbance 550 nm, slope 6-24 min, read-out: Relative Potency
# Protocol: The in vitro efficacy of the IP4-4,6 substituted derivatives (e.g., Compounds 1 to 53) of the invention on the inhibition of calcium phosphate crystallization in human plasma samples was evaluated according to a spectrophotometric assay previously described in the art (Ferrer M, et al., Sci Rep 2017; 7:6858, doi:10.1038/s41598-017-07203-x).
# A 96-well plate was employed. Plasma was spiked (1 volume of the IP4-4,6 substituted derivatives of the invention per 19 volumes of plasma) with increasing concentrations of the derivatives in the range of 0-100 μM. Plasma was then centrifuged at 10,000 g at rt and subsequently mixed with a mixture of 5 mM hydrogen phosphate and 41.67 mM calcium to attain final concentrations of 1.5 mM phosphate and 12.5 mM calcium, respectively. All reagent solutions were filtered, and pH adjusted to 7.4.
# Crystallization of calcium phosphate was monitored spectrophotometrically for 30 min at rt by measuring the increments in absorbance at 550 nm using the Biotek Powerwave XS Microplate spectrophotometer (BioTek Instruments, Inc., Winooski, VT, US). The plate was incubated at rt in an orbital shaker and absorbance measured every 3 min.
# Plasma crystallization was assessed based on slope measurement in the linear range between 6 and 24 min from plots of increase in absorbance versus logarithm of time. The efficacy of different myo-inositol phosphates derivatives in preventing in vitro formation of calcium phosphate crystals was assessed in human plasma samples using the slopes obtained between 6- and 24-min. Inhibition of crystallization was measured by comparing the slopes of the control sample (blank plasma) with those of samples containing the inhibitor as shown below: […]
row,SMILES,EC50 [µM]
1,"COCCCOC1C(OP(=O)(O)O)C(OCCCOC)C(OP(=O)(O)O)C(OP(=O)(O)O)C1OP(=O)(O)O (stereo not drawn) [Compound 10, 4,6-O-bis(3-methoxypropyl)-myo-inositol-1,2,3,5-tetrakis(phosphate) octasodium salt]",≤ 5
2,"CC(C)CCCOC1C(OP(=O)(O)O)C(OCCCC(C)C)C(OP(=O)(O)O)C(OP(=O)(O)O)C1OP(=O)(O)O (stereo not drawn) [Compound 21, 4,6-O-bis(4-methylpentyl)-myo-inositol-1,2,3,5-tetrakis(phosphate) octasodium salt]",> 10
3,"O=P(O)(O)OC1C(OCCCCCC(F)(F)F)C(OP(=O)(O)O)C(OP(=O)(O)O)C(OP(=O)(O)O)C1OCCCCCC(F)(F)F (stereo not drawn) [Compound 23, 4,6-O-bis(6,6,6-trifluorohexyl)-myo-inositol-1,2,3,5-tetrakis(phosphate) octasodium salt]",> 10
4,"O=C(O)CCc1cn(CCCOC2C(OP(=O)(O)O)C(OCCCn3cc(CCC(=O)O)nn3)C(OP(=O)(O)O)C(OP(=O)(O)O)C2OP(=O)(O)O)nn1 (stereo not drawn) [Compound 35, 4,6-O-bis(3-(4-(2-carboxyethyl)-1H-1,2,3-triazol-1-yl)propyl)-myo-inositol-1,2,3,5-tetrakis(phosphate) decasodium salt]",≤ 5
5,"CC(=O)N1CCN(CCOC2C(OP(=O)(O)O)C(OCCN3CCN(C(C)=O)CC3)C(OP(=O)(O)O)C(OP(=O)(O)O)C2OP(=O)(O)O)CC1 (stereo not drawn) [Compound 34, 4,6-O-bis(2-(4-acetylpiperazin-1-yl)ethyl)-myo-inositol-1,2,3,5-tetrakis(phosphate) octasodium salt]",5 to 10
6,"O=P(O)(O)O[C@@H]1[C@@H](OCCC2CCCC2)[C@H](OP(=O)(O)O)[C@H](OP(=O)(O)O)[C@H](OP(=O)(O)O)[C@H]1OCCC1CCCC1 [Compound 29, 4,6-O-bis(2-cyclopentylethyl)-myo-inositol-1,2,3,5-tetrakis(phosphate) octasodium salt]",≤ 5
7,"O=P(O)(O)OC1C(OCCCc2cccc(C(F)(F)F)c2)C(OP(=O)(O)O)C(OP(=O)(O)O)C(OP(=O)(O)O)C1OCCCc1cccc(C(F)(F)F)c1 (stereo not drawn) [Compound 44, 4,6-O-bis(3-(3-(trifluoromethyl)phenyl)propyl)-myo-inositol-1,2,3,5-tetrakis(phosphate) octasodium salt]",> 10
8,"COCCCCCCCCC#CCCCCCCCCCOC1C(OP(=O)(O)O)C(OCCCCCCCCCC#CCCCCCCCCOC)C(OP(=O)(O)O)C(OP(=O)(O)O)C1OP(=O)(O)O (stereo not drawn) [Compound 20, 4,6-O-bis(19-methoxynonadec-10-yn-1-yl)-myo-inositol-1,2,3,5-tetrakis(phosphate) octasodium salt]",≤ 5
9,"CCCO[C@@H]1[C@@H](OP(=O)(O)O)[C@H](OCCC)[C@@H](OP(=O)(O)O)[C@@H](OP(=O)(O)O)[C@H]1OP(=O)(O)O [Compound 4, 4,6-O-dipropyl-myo-inositol-1,2,3,5-tetrakis(phosphate) octasodium salt]",≤ 5
10,"NCCCCCCCCCCO[C@@H]1[C@@H](OP(=O)(O)O)[C@H](OCCCCCCCCCCN)[C@@H](OP(=O)(O)O)[C@@H](OP(=O)(O)O)[C@H]1OP(=O)(O)O [Compound 15, 4,6-O-bis(10-aminodecyl)-myo-inositol-1,2,3,5-tetrakis(phosphate) octasodium salt]",> 10
11,"COCc1cn(CCCCCCOC2C(OP(=O)(O)O)C(OCCCCCCn3cc(C(=O)O)nn3)C(OP(=O)(O)O)C(OP(=O)(O)O)C2OP(=O)(O)O)nn1 (stereo not drawn) [Compound 41, 4-O-(6-(4-carboxy-1H-1,2,3-triazol-1-yl)hexyl)-6-O-(6-(4-(methoxymethyl)-1H-1,2,3-triazol-1-yl)hexyl)-myo-inositol-1,2,3,5-tetrakis(phosphate) nonasodium salt]",≤ 5
12,"CCCCCCCCCCCCCCO[C@@H]1[C@@H](OP(=O)(O)O)[C@H](OCCCCCCCCCCCCCC)[C@@H](OP(=O)(O)O)[C@@H](OP(=O)(O)O)[C@H]1OP(=O)(O)O [Compound 3, 4,6-O-di(tetradecyl)-myo-inositol-1,2,3,5-tetrakis(phosphate) octasodium salt]",≤ 5
